What was measured:
[1] = system: E. faecalis JH2-2; test: MIC after inactivation of vanS by insertion in plasmid pAT80; assay type: cell-based, Enterococcus faecalis; settings: inactivation of vanS in pAT80, compared with pAT80
From the text: The restriction fragments of pIP816 (Tra^−, Mob^+, Vm^r) were cloned in derivatives of the vector pAT29 which constitutes a shuttle vector between the Gram-positive and Gram-negative bacteria (oriR pAMβ1, oriR pUC, oriT RK2, spc, lacZ) (Trieu-Cuot et al., 1990, Nucleic Acids Res. 18:4296). This vector was constructed by the inventors and used to transform the strain E. coli JM103 ((lac-proAB), supE, thi, strA, sbcB15, endA, hspR4, F traD36, proAB, LacI^q, lacZ M15) (Messing et al., 1983, Methods Ezymol. 101:20-78). The plasmid DNA was prepared by an alkaline lysis protocol on a small scale (Sambrook et al., 1982, Molecular cloning, a laboratory manual. Cold Spring Harbor Laboratory, Cold Spring Harbor N.Y.) and introduced by electroporation (Cruz-Rodz A. L. et al., 1990, Mol. Gen. Genet. 224: 152-154) in E. faecalis JH2-2 (Fus^R, Rif^R) (Jacob A. E. et al., 1974, J. Bacteriol. 117: 360-372), by using a Gene Pulser apparatus (Bio-Rad Laboratories, Richmond, Calif.). The restriction profiles of the purified plasmids from E. faecalis and E. coli were compared in order to detect possible rearrangements of DNA.
The cultures were grown in brain-heart broth (BHI—Brain Heart Infusion Broth) or on agar at 37° C. […]

[2] = system: E. gallinarum BM4174; test: Minimal inhibitory concentration of vancomycin for BM4174; assay type: cell-based; settings: Enterococcus gallinarum, read-out: minimal inhibitory concentration
Description: (§1) The cultures were grown in brain-heart broth (BHI—Brain Heart Infusion Broth) or on agar at 37° C. The method of Steers et al (Antibiot. Chemother. Basel. 9: 307-311) was used to determine the minimal inhibitory concentrations (MICs) of the antibiotics on a Mueller-Hinton gelose agar medium.
(§2) In order to evaluate the contribution of vanC to resistance to vancomycin in E. gallinarum BM4174, the vanC gene was inactivated by insertion. […] The resulting pAT217 plasmid was introduced into BM4174 by electroporation (Cruz-Rodz et al., 1990, Mol. Gen. Genet. 224:152-154) and the clones supposed to result from a homologous recombination leading to the integration of pAT217 into vanC were selected on erythromycin. The clone BM4175 was compared with BM4174 by Southern hybridization using the probe C and aphA-3 specific for pAT114. The two probes hybridized with the EcoRI fragment of 8.6 kb from BM4175.

[3] = system: BM4175; test: Minimal inhibitory concentration of vancomycin for BM4175 (vanC inactivated by insertion); assay type: cell-based; settings: Enterococcus gallinarum; BM4175, pAT217 integrated into vanC
Description: as §1, §2

[4] = system: strain with a high level of resistance, in particular Gram-positive cocci; test: MIC towards strains with a high level of resistance; assay type: cell-based
[5] = system: strains with low-level resistance; test: MIC towards strains with low-level resistance; assay type: cell-based

Compound	change of minimal inhibitory concentration (MIC) [1]	MIC [2]	MIC [3]	MIC ([4]; read-out: minimal inhibitory concentrations (MIC))	minimal inhibitory concentrations (MIC) ([4]; strains with a high level of resistance (definition))	sensitivity of the strains [5]
O=C(N[C@H](CO)[C@H](O)c1ccc([N+](=O)[O-])cc1)C(Cl)Cl [chloramphenicol]	two-fold reduction	–	–	–	–	–
CN[C@H](CC(C)C)C(=O)N[C@H]1C(=O)N[C@@H](CC(N)=O)C(=O)N[C@H]2C(=O)N[C@H]3C(=O)N[C@H](C(=O)N[C@H](C(=O)O)c4cc(O)cc(O)c4-c4cc3ccc4O)[C@H](O)c3ccc(c(Cl)c3)Oc3cc2cc(c3O[C@@H]2O[C@H](CO)[C@@H](O)[C@H](O)[C@H]2O[C@H]2C[C@](C)(N)[C@H](O)[C@H](C)O2)Oc2ccc(cc2Cl)[C@H]1O [vancomycin]	remains unchanged	16 µg/mL	2 µg/mL	> 32 µg/mL	–	–
teicoplanin	–	–	–	–	> 8 µg/mL	apparently sensitive
